Patent publication US8686048B2, “Immunomodulator and anti-inflammatory compounds” (Rhizen Pharmaceuticals SA, priority 2010, dated 2014)

How the values were obtained:
[1] = target: T1, h-DHODH (Homo sapiens, UniProt Q02127); assay: Dihydro-orotate dehydrogenase inhibition assay (U937 membrane preparations, DCIP reduction); type: biochemical; conditions: U937 membrane preparation; for inhibition at 0.3 µM: compound tested at 0.3 uM (footnote *)
T1 construct: endogenous in cells; host or cells: U937 cells (membrane fraction, solubilised with 1% octyl glucoside)
T1 sequence (Q02127 whole entry): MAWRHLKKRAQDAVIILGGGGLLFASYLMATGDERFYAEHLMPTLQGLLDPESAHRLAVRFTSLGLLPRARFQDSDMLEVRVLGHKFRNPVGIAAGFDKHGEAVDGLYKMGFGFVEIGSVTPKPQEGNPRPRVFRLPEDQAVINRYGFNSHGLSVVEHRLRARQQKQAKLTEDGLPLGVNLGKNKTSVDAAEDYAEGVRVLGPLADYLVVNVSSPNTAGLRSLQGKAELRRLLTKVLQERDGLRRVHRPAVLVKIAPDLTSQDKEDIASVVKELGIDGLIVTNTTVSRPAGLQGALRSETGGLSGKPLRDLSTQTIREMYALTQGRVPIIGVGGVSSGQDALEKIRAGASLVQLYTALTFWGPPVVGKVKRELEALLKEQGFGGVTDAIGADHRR
Description: Dihydro-Orotate Dehydrogenase Inhibition Assay
Dihydro-orotate dehydrogenase (DHODH) catalyzes the […] of dihydro-orotate to orotate during de novo biosynthesis of pyrimidines Inhibition of DHODH activity in U937 membrane preparations was measured by the dihydro-orotate driven reduction of 2,6 dichloroindophenol (DCIP).
U937 cells were homogenized in 20 mM Tris/HCl (pH 7.2) containing 1 mM EDTA. […] Following washes, the pellet was dissolved in 20 mM Tris/HCl containing 150 mM NaCl, 1 mM EDTA, and 1% octyl glucoside on ice for 1 h. Particulate matter was removed by centrifugation at 100000×g for 1 h at 4° C. […] The mixture was incubated at 37° C. for 4 h before measuring the change in absorbance on a plate reader (BMG Labtech., Germany) at 600 nm. Data were analyzed using GraphPad Prism. IC50 for each compound was determined based on the percent inhibition of dihydro-orotate […].

[2] = system: IL-17; assay: Inhibition of IL-17 release from mouse splenocytes (PMA + ionomycin, ELISA); type: cell-based, Balb/c mice; conditions: Splenocyte, 3 h
Description: 2. Inhibition of IL-17 Release from Mouse Splenocytes:
Splenocytes isolated from Balb/c mice were re-suspended in RPMI medium at a concentration of 1×10^6 cells/ml and seeded in a 6 well plate. Cells were incubated with desired concentrations of the inhibitor for 15 min prior to induction with 10 ng/ml PMA+1 μM ionomycin. After a 3 h incubation, supernatant was collected and analyzed for IL-17 concentration using an ELISA kit. Data were analyzed using GraphPad Prism. IC50 values for each compound were determined based on the percent inhibition due to the test compound compared to the control.

[3] = Single dose oral hepatotoxicity assay; type: in vivo, BALB/cJ mice; conditions: serum, 24 hr after 100 mg/kg po single dose, mice
Description: 5. Single Dose Oral Hepatotoxicity Assay:
BALB/cJ (n=4 or 5/sex) mice aged 8 to 10 weeks, with weights ranging from 18 to 25 g were used. They were housed under conditions of controlled temperature and humidity and a 12-h light/dark cycle. They were given continuous access to bottled spring water and fed a standard chow at ad libitum. The mice were allowed to acclimate for 1 week before use. On the day of experiment mice were fasted overnight for 12 h and administered with test item formulation (100 mg/kg·b·wt/po) or vehicle (10 ml/kg·b·wt/po) by oral route and food was given 4 hr after test item administration. After 24 hr post administration blood samples were collected from orbital sinus of all the animals and serum was separated to assess the hepatotoxicity. Biochemical evaluation of liver function was determined by measuring serum enzyme activities of alanine aminotransferase (ALT) and aspartate aminotransferase (AST) using commercially available kits from Sigma (St. Louis, Mo.).

## O=C(O)c1ccccc1C(=O)Nc1c(F)cc(-c2ccccc2F)cc1Cl [Example 20, 2-(3-Chloro-2′,5-difluorobiphenyl-4-ylcarbamoyl)benzoic acid]
[1]
  inhibition at 1 µM: 55.4%
other
  melting point: 163 to 167 °C
[2]
  inhibition at 10 µM: 24.3%

## CCOc1cccc(-c2cc(Cl)c(NC(=O)c3ccccc3C(=O)O)c(Cl)c2)c1 [Example 21, 2-(3,5-Dichloro-3′-ethoxybiphenyl-4-ylcarbamoyl)benzoic acid]
[1]
  inhibition at 1 µM: 56.4%
other
  melting point: 135.9 to 138.2 °C
[2]
  inhibition at 10 µM: 17.8%

## O=C(O)c1ccccc1C(=O)Nc1ccc(-c2cccc(OC(F)(F)F)c2)cc1F [Example 22, 2-[3-Fluoro-3′-(trifluoromethoxy)biphenyl-4-ylcarbamoyl]benzoic acid]
[1]
  inhibition at 1 µM: 41.8%
other
  melting point: 128.3 to 132.1 °C
[2]
  inhibition at 10 µM: 12.9%

## O=C(O)c1ccccc1C(=O)Nc1ccc(-c2ccccc2F)cc1OC(F)(F)F [Example 23, 2-[2′-Fluoro-3-(trifluoromethoxy)biphenyl-4-ylcarbamoyl]benzoic acid]
[1]
  inhibition at 1 µM: 47.2%
other
  melting point: 142.2 to 148.1 °C
[2]
  inhibition at 10 µM: 15%

## O=C(O)c1ccccc1C(=O)Nc1c(Cl)cc(-c2ccccc2F)cc1Cl [Example 24, 2-(3,5-Dichloro-2′-fluorobiphenyl-4-ylcarbamoyl)benzoic acid]
[1]
  inhibition at 1 µM: 40.2%
other
  melting point: 185.4 to 193.6 °C
[2]
  inhibition at 10 µM: 8.46%

## CC(C)Oc1cccc(-c2cc(F)c(NC(=O)c3ccccc3C(=O)O)c(F)c2)c1 [Example 25, 2-(3,5-Difluoro-3′-isopropoxybiphenyl-4-ylcarbamoyl)benzoic acid]
[1]
  inhibition at 1 µM: 60.2%
other
  melting point: 122 to 125 °C
[2]
  inhibition at 10 µM: 17.5%

## CCCOc1cccc(-c2cc(F)c(NC(=O)c3ccccc3C(=O)O)c(F)c2)c1 [Example 26, 2-(3,5-Difluoro-3′-propoxybiphenyl-4-ylcarbamoyl)benzoic acid]
[1]
  inhibition at 1 µM: 85.3%
  IC50: 122 nM
other
  melting point: 128.6 to 132.1 °C
[2]
  inhibition at 10 µM: 8.7%

## O=C(O)c1cc(Cl)c(Cl)cc1C(=O)Nc1c(F)cc(-c2ccccc2Cl)cc1Cl [Example 27, 4,5-Dichloro-2-(2′,3-dichloro-5-fluorobiphenyl-4-ylcarbamoyl)benzoic acid]
[1]
  inhibition at 1 µM: 82.9%
  IC50: 147 nM
other
  melting point: 202.3 to 206.5 °C
[2]
  inhibition at 10 µM: 12.4%

## O=C(O)c1cc(Cl)c(Cl)cc1C(=O)Nc1c(F)cc(-c2ccccc2Cl)cc1F [Example 30, 4,5-Dichloro-2-(2′-chloro-3,5-difluorobiphenyl-4-ylcarbamoyl)benzoic acid]
[1]
  inhibition at 1 µM: 68%
other
  melting point: 202 to 205.5 °C
[2]
  inhibition at 10 µM: 10.3%

## O=C(O)c1ccccc1C(=O)Nc1c(F)cc(-c2ccccc2F)cc1F [Example 32, 2-(2′,3,5-Trifluorobiphenyl-4-ylcarbamoyl)benzoic acid]
[1]
  inhibition at 1 µM: 58.9%
other
  melting point: 152.2 to 156.3 °C
[2]
  inhibition at 10 µM: 11.8%

## CC(C)COc1cccc(-c2cc(F)c(NC(=O)c3ccccc3C(=O)O)c(F)c2)c1 [Example 34, 2-(3,5-Difluoro-3′-isobutoxybiphenyl-4-ylcarbamoyl)benzoic acid]
[1]
  inhibition at 1 µM: 95.8%
  IC50: 62.5 nM
other
  melting point: 112.6 to 116.4 °C
[2]
  inhibition at 10 µM: 5.96%

## O=C(O)c1ccccc1C(=O)Nc1c(F)cc(-c2cccc(OC(F)(F)F)c2)cc1Cl [Example 39, 2-[3-Chloro-5-fluoro-3′-(trifluoromethoxy)biphenyl-4-ylcarbamoyl]benzoic acid]
[1]
  inhibition at 1 µM: 74.4%
  IC50: 178 nM
other
  melting point: 153 to 156.5 °C
[2]
  inhibition at 10 µM: 5.87%

## O=C(O)c1ccccc1C(=O)Nc1c(F)cc(-c2cccc(OC3CCCC3)c2)cc1F [Example 41, 2-[3′-(Cyclopentyloxy)-3,5-difluorobiphenyl-4-ylcarbamoyl]benzoic acid]
[1]
  inhibition at 1 µM: 72.2%
  IC50: 83.4 nM
other
  melting point: 153 to 156.5 °C
[2]
  inhibition at 10 µM: 7.16%

## CCOc1cccc(-c2ccc(NC(=O)c3ccccc3C(=O)O)cc2)c1 [Example 70, 2-(3′-ethoxybiphenyl-4-ylcarbamoyl)benzoic acid]
[1]
  inhibition at 1 µM: 14%
[3]
  ALT: 84 U/L
  AST: 210.4 U/L
[2]
  inhibition at 10 µM: 48.4%
  IC50: 9110 nM

## CCSc1cccc(-c2cc(F)c(NC(=O)c3ccccc3C(=O)O)c(F)c2)c1 [Example 71, 2-[3′-(ethylthio)-3,5-difluorobiphenyl-4-ylcarbamoyl]benzoic acid]
[1]
  inhibition at 1 µM: 84.8%
  IC50: 53.5 nM
other
  melting point: 137.8 to 142.1 °C
[2]
  inhibition at 10 µM: 27.8%

## O=C(O)c1ccccc1C(=O)Nc1c(F)cc(-c2cccc(OC3CC3)c2)cc1F [Example 73, 2-(3′-cyclopropoxy-3,5-difluorobiphenyl-4-ylcarbamoyl)benzoic acid]
[1]
  IC50: 28 nM
  inhibition at 0.3 µM: 85%
other
  melting point: 125 to 127 °C
[2]
  inhibition at 10 µM: 7.86%

## CCOc1cccc(-c2cc(F)c(NC(=O)c3cccc(C)c3C(=O)O)c(F)c2)c1 [Example 74, 2-(3′-ethoxy-3,5-difluorobiphenyl-4-ylcarbamoyl)-6(5)-methylbenzoic acid]
[1]
  inhibition at 0.3 µM: 7.14%
other
  melting point: 138 to 140 °C
[2]
  inhibition at 10 µM: 13.8%

## CCOc1cccc(-c2cc(F)c(NC(=O)c3ncccc3C(=O)O)c(F)c2)c1 [Example 76, 2-(3′-ethoxy-3,5-difluorobiphenyl-4-ylcarbamoyl)nicotinic acid]
[1]
  inhibition at 0.3 µM: 44%
other
  melting point: 207 to 210 °C
[2]
  inhibition at 10 µM: 7.88%

## CCOc1cccc(-c2cc(F)c(NC(=O)c3ccncc3C(=O)O)c(F)c2)c1 [Example 77, 4-(3′-ethoxy-3,5-difluorobiphenyl-4-ylcarbamoyl)nicotinic acid]
[1]
  inhibition at 0.3 µM: 50.2%
other
  melting point: 219 to 221 °C
[2]
  inhibition at 10 µM: 9.25%

## CCSc1cccc(-c2c(F)c(F)c(NC(=O)c3ccccc3C(=O)O)c(F)c2F)c1 [Example 78, 2-[3′-(ethylthio)-2,3,5,6-tetrafluorobiphenyl-4-ylcarbamoyl]benzoic acid]
[1]
  inhibition at 0.3 µM: 32.9%
other
  melting point: 158 to 160 °C
[2]
  inhibition at 10 µM: 11.1%

## CCCOc1cccc(-c2ccc(NC(=O)c3ccccc3C(=O)O)c(F)c2)c1 [Example 80, 2-(3-fluoro-3′-propoxybiphenyl-4-ylcarbamoyl)benzoic acid]
[1]
  inhibition at 0.3 µM: 47.6%
other
  melting point: 116 to 119 °C
[2]
  inhibition at 10 µM: 20.1%

## CCCOc1cccc(-c2ccc(NC(=O)c3ccccc3C(=O)O)cc2)c1 [Example 81, 2-(3′-propoxybiphenyl-4-ylcarbamoyl)benzoic acid]
[1]
  inhibition at 0.3 µM: 11.2%
other
  melting point: 152 to 154 °C
[2]
  inhibition at 10 µM: 23%

## CCSc1cccc(-c2ccc(NC(=O)c3ccccc3C(=O)O)cc2F)c1 [Example 82, 2-[3′-(ethylthio)-2-fluorobiphenyl-4-ylcarbamoyl]benzoic acid]
[1]
  inhibition at 0.3 µM: 57.9%
other
  melting point: 74 to 76 °C
[2]
  inhibition at 10 µM: 17.6%

## O=C(O)c1ccccc1C(=O)Nc1ccc(-c2ccccc2Cl)cc1 [Example 86, 2-(2′-chlorobiphenyl-4-ylcarbamoyl)benzoic acid]
[1]
  inhibition at 0.3 µM: 33.6%
other
  melting point: 243 to 247 °C
[2]
  inhibition at 10 µM: 23.8%

## COc1cccc(-c2ccc(NC(=O)c3ccccc3C(=O)O)cc2)c1 [Example 87, 2-(3′-methoxybiphenyl-4-ylcarbamoyl)benzoic acid]
[1]
  inhibition at 0.3 µM: 30.2%
other
  melting point: 243 to 247 °C
[2]
  inhibition at 10 µM: 20.9%

## O=C(O)c1ccccc1C(=O)Nc1ccc(-c2cccc(OC(F)(F)F)c2)cc1 [Example 88, 2-[3′-(trifluoromethoxy)biphenyl-4-ylcarbamoyl]benzoic acid]
[1]
  inhibition at 0.3 µM: 62.2%
other
  melting point: 154.4 to 158.5 °C
[2]
  inhibition at 10 µM: 19.1%

## CCc1cccc(-c2ccc(NC(=O)c3ccccc3C(=O)O)cc2)c1 [Example 90, 2-(3′-ethylbiphenyl-4-ylcarbamoyl)benzoic acid]
[1]
  inhibition at 1 µM: 29.4%
other
  melting point: 178 to 182 °C
[2]
  inhibition at 10 µM: 22.4%
